Laboratory results as given in US20110207689A1, “THE TREATMENT OF HEARING LOSS” (Auckland UniServices Limited, priority 2008, published 2011).
Counter-ions that a name gives are not always drawn.

Key:
[1] = test system: rats exposed to broad band noise for 24 hours at 110 dBSPL; experiment: ABR after broad band noise, adenosine receptor agonists delivered onto the round window membrane (Experiment 3); assay type: in vivo, Wistar rats; details: for post-treatment ABR thresholds for clicks and pure tones: 48 hours after administration to the RWM, CGS-21680 200 μM; for post-treatment ABR thresholds for clicks and pure tones / ABR threshold recovery for clicks: adenosine 10 mM; for post-treatment ABR thresholds for clicks and pure tones / ABR threshold recovery for pure tones (up to) / ABR threshold recovery for clicks: CCPA 1 mM; for ABR threshold recovery for pure tones (up to) / ABR threshold recovery for clicks: single dose onto RWM 6 hours after noise, ABR 48 hours after treatment; for ABR threshold recovery for pure tones (up to): adenosine 10 mM (16 kHz)
Method: ABRs were measured in response to auditory clicks (a) and pure tones (b-e) before noise exposure (baseline), 30 minutes after noise exposure (pre-treatment) and 48 hours after administration of adenosine receptor agonists (post-treatment). All drugs were delivered onto the cochlear round window membrane (f) Threshold recovery is defined as ABR post-treatment minus ABR pre-treatment. Data are expressed as means±SEM (n=8). *p<0.05; **p<0.01; ***p<0.001; one way ANOVA with Tukey's multiple comparison test. AP, artificial perilymph (control); adenosine (10 mM), non-selective adenosine receptor agonist; CCPA (1 mM), selective A1 adenosine receptor agonist; CGS-21680 (0.2 mM), selective A2A receptor agonist.
Rats were exposed to a broadband noise presented for 24 hours at 90, 100, or 110 dBSPL. Noise exposures were carried out in a custom-built acoustic chamber (Shelburg Acoustics, Sydney, Australia) with internal speakers and external controls (sound generator and frequency selector). The sound levels in the cage were measured using a calibrated Rion NL-49 sound level meter to ensure minimal deviations of sound intensity. The animals had free access to food and water during the exposure.
Auditory thresholds in noise-exposed animals were measured using auditory brainstem responses (ABR), which represent the sound evoked potentials from the auditory nerve and brainstem auditory nuclei. ABR measurements were recorded at least 24 hours prior to noise exposure (baseline) and then 30 min after noise exposure (pre-treatment). Adenosine receptor agonists or vehicle control were then delivered to the cochlear round window (around 6 hours post-noise) and ABR measurement was then repeated 48 hours after drug administration (post-treatment). ABR measurements were performed in a sound attenuator chamber (Shelburg Acoustics, Sydney, Australia). The rats were anesthetized with ketamine (75 mg/kg) and xylazine (10 mg/kg) and their body temperature was maintained at 38° C. with a heating pad as described. ABRs were obtained by placing fine platinum electrodes subdermally at the mastoid region of the ear of interest (active electrode), scalp vertex (reference) and mastoid region of the opposite ear (ground electrode). A series of auditory clicks or pure tones (4-28 kHz) presented at varying intensity and thresholds generated electrical activity reflecting differing levels of auditory processing. The sound threshold of the ABR complex (waves I-IV) were determined by progressively attenuating the sound intensity until the waveform was no longer observed. The acoustic stimuli for ABR were produced, and the responses, recorded, using a Tucker-Davis Technologies auditory physiology workstation (Alachua, Fla., USA) controlled by computer-based digital signal processing package and software (BioSig, Alachua, Fla., USA). ABR potentials were evoked with digitally produced 5 ms tone pips (0.5 ms rise-fall time) at frequencies between 4 and 28 kHz in half-octave steps. Sound pressure level (SPL) was raised in 5 dB steps starting from 10 dB below threshold level to 90 dB SPL. Responses were averaged at each sound level (1024 repeats with stimulus polarity alternated), and response waveforms were discarded when peak-to-peak amplitude exceeded 15 μV (artefact reject). The ABR threshold was defined as the lowest intensity (to the nearest 5 dB) at which a response could be visually detected above the noise floor. The animals were euthanised after hearing assessment and the cochleae collected for immunohistochemical assessment of free radical damage.
Six hours after exposure to broad band noise (110 dBSPL for 24 hours), adenosine receptor agonists were delivered to the round window membrane (RWM) in the left cochlea, whilst the contralateral ear served as untreated control. […]

[2] = test system: inner hair cell receptor potential; experiment: Summating potential (SP) thresholds during cochlear perfusion, ambient noise levels; assay type: in vivo, Wistar rats; details: for effect on SP thresholds: RWM perfusion 90 minutes, adenosine 10 mM, CCPA 1 mM, rats at ambient noise
Method: SP thresholds, representing the inner hair cell receptor potential, were measured at frequencies ranging from 4-26 kHz prior to perfusion of artificial perilymph (AP; baseline), after AP perfusion and after perfusion with adenosine receptor agonists adenosine and CCPA. Data presented as mean±SEM (n=8). *p<0.05 **p<0.01, one way ANOVA with Tukey's multiple comparison test. AP, artificial perilymph (control); adenosine (10 mM), non-selective adenosine receptor agonist; CCPA (1 mM), selective A1 adenosine receptor agonist; CGS-21680 (0.2 mM), selective A2A receptor agonist; SCH-58261, selective A2A receptor antagonist.
(§1) As a foundation for the noise studies and to determine the general effect of selective adenosine receptor agonists on the cochlea, auditory function was first evaluated in control animals using the summating potential (SP; measure of the inner hair cell receptor potential) and the compound action potential (CAP; measure of the neural afferent output). This was undertaken to determine the background influence of adenosine receptor activation in the normal cochlea as a platform for the studies in noise-exposed animals.
Animals were anaesthetized (sodium pentobarbital; 60 mg/kg i.p.) and placed on a thermostatically regulated blanket connected to a remote homeothermal control unit (Harvard Apparatus, Holliston, Mass., USA) to maintain stable body temperature (37.5° C.) via a rectal thermocouple probe (Harvard Apparatus). The head of the animal was placed on a heated (38° C. surface temperature) stereotaxic head-holder, connected to a heat block temperature controller (Bio-Medical Engineering Services, University of Auckland, New Zealand). The animals were artificially ventilated and the auditory bulla was exposed using a ventrolateral approach. The perfusion line was inserted close to the round window membrane (RWM). The RWM was perfused with test solutions containing A1, or A2A adenosine receptor agonists at […] using a Harvard Apparatus Series PHD 22/2000 syringe pump. Adenosine receptor agonists adenosine (10 mM), CCPA (1 mM), CGS-21680 (200 μM), alone or in combination with adenosine receptor antagonist SCH-58261 (200 μM), were perfused for 90 minutes. Sound-evoked cochlear responses (CAP and SP) to pure tone stimuli (4-28 kHz) were recorded from a silver wire electrode placed onto the cochlear round window. These responses were measured using a Tucker-Davis System II for the presentation of tone stimuli and acquisition of the electrical potentials via a Grass P16 Pre-amplifier.

[3] = test system: nitrotyrosine immunoreactivity in the noise-exposed cochlea; experiment: Nitrotyrosine immunohistochemistry, semi-quantitative, noise-exposed cochleae treated topically (Experiment 3); assay type: in vivo, Wistar rats; details: middle turn, adenosine 10 mM or CCPA 1 mM onto RWM, p<0.01
From the text: No immunostaining was detected when the nitrotyrosine antibody was omitted. (B). Semi-quantitative analysis of nitrotyrosine immunoreactivity. Abbreviations: cc, Claudius cells; dc, Deiters' cells; hc, Hensen's cells; idc, interdental cells; is, inner sulcus cells; ihc, inner hair cells; ohc, outer hair cells; opc, outer pillar cells. Scale bars: 50 μm. Data are expressed as means±SEM (n=4 animals per group). **p<0.01; ***p<0.001; one way ANOVA with Tukey's multiple comparison test.
Nitrotyrosine formation in the noise-exposed cochlea was assessed by immunohistochemistry. […] Immunoperoxidase reaction was detected using a secondary biotin-conjugated goat anti-rabbit IgG, followed by reaction visualisation using an avidin-biotin-peroxidase complex (ABC kit, Vector Laboratories) and diaminobenzidine (DAB kit, Vector). […] Images were analyzed using identical acquisition parameters and immunolabeling was semi-quantified using ImageJ software (v.1.38x, NIH, USA). […] Regions of interest were selected and their immunostaining intensity histograms obtained and expressed as mean pixel intensity after greyscale conversion. Between 15 and 32 images of the middle cochlear turn were analyzed in each group (n=4 animals per group) in a double-blind manner.

[4] = test system: neural afferent output of the cochlea; experiment: Compound action potential (CAP) thresholds during cochlear perfusion, ambient noise levels; assay type: in vivo, Wistar rats; details: RWM perfusion; data not shown
From the text: as §1
Animals were anaesthetized (sodium pentobarbital; 60 mg/kg i.p.) and placed on a thermostatically regulated blanket connected to a remote homeothermal control unit (Harvard Apparatus, Holliston, Mass., USA) to maintain stable body temperature (37.5° C.) via a rectal thermocouple probe (Harvard Apparatus). The head of the animal was placed on a heated (38° C. surface temperature) stereotaxic head-holder, connected to a heat block temperature controller (Bio-Medical Engineering Services, University of Auckland, New Zealand). […] Sound-evoked cochlear responses (CAP and SP) to pure tone stimuli (4-28 kHz) were recorded from a silver wire electrode placed onto the cochlear round window. These responses were measured using a Tucker-Davis System II for the presentation of tone stimuli and acquisition of the electrical potentials via a Grass P16 Pre-amplifier.

noise-exposed cochlea = details: pre-treatment (prophylactic), reference [6], cited from earlier work

| Structure (SMILES) | post-treatment ABR thresholds for clicks and pure tones [1] | ABR threshold recovery for pure tones (up to) [1] | ABR threshold recovery for clicks [1] | effect on SP thresholds [2] | reduction of nitrotyrosine mean pixel intensity compared to AP control [3] | further results |
| --- | --- | --- | --- | --- | --- | --- |
| OC[C@H]1O[C@@H](n2cnc3c(NC4CCCC4)nc(Cl)nc32)[C@H](O)[C@@H]1O [CCPA, 2-Chloro-N^6-cyclopentyladenosine] | markedly improved ABR thresholds | up to 20 dB | 20 dB | did not affect SP thresholds | 22-45% |  |
| Nc1ncnc2c1ncn2[C@@H]1O[C@H](CO)[C@@H](O)[C@H]1O [adenosine] | markedly improved ABR thresholds | up to 19 dB | 18 dB | did not affect SP thresholds | 30-42% | effect on CAP thresholds [4]: not altered |
| CCNC(=O)[C@H]1O[C@@H](n2cnc3c(N)nc(NCCc4ccc(CCC(=O)O)cc4)nc32)[C@H](O)[C@@H]1O [CGS-21680, 2-p-(2-Carboxyethyl)phenethylamino-5′-N-ethylcarboxamidoadenosine hydrochloride hydrate] | remained unchanged |  |  |  |  | threshold recovery ([1]; CGS-21680 200 μM onto RWM 6 hours after noise, FIG. 11(f)): did not affect threshold recovery; reduction of SP thresholds ([2]; at 16 kHz, CGS-21680 200 μM RWM perfusion, p<0.01): 5 dB |
| Nc1nc2c(cnn2CCc2ccccc2)c2nc(-c3ccco3)nn12 [SCH-58261, 7-(2-phenylethyl)-5-amino-2-(2-furyl)-pyrazolo-[4,3-e]-1,2,4-triazolo[1,5-c]pyrimidine] |  |  |  |  |  | effect on the CGS-21680 reduction of SP thresholds ([2]; SCH-58261 200 μM in combination with CGS-21680): inhibited |
| C[C@H](Cc1ccccc1)Nc1ncnc2c1ncn2[C@@H]1O[C@H](CO)[C@@H](O)[C@H]1O [R-PIA, R—N6-phenylisopropyladenosine] |  |  |  |  |  | survival of the outer hair cells (noise-exposed cochlea): increased survival of the outer hair cells; preservation of auditory thresholds (noise-exposed cochlea; topical to RWM): better preservation of auditory thresholds |
